From US20110237670A1, “IMPROVEMENT OF NORMAL COGNITIVE FUNCTION” (priority 2008, published 2011)

Tests used:
[1] = system: Male NMRI mice; experiment: prepulse inhibition (PPI) of acoustic startle response model (pre-attentive information processing); format: in vivo; conditions: for increase in capacity to filter information pre-attentively (absolute change in PPI at day 1 compared to matching test): acute administration, day 1, FIG. 1B; for effect on PPI response: day 1 and day 3, prepulse level 9 dB over background noise
Text: One way to elucidate how substances affect our cognitive function is to measure how the brain processes information. Pre-attentive information processing is thought to be important for selective and efficient processing of sensory information and for coherent cognitive operations, and thus for memory and cognitive functions. Pre-attentive information processing can be assessed by using the prepulse inhibition (PPI) of acoustic startle response model. One major advantage of the PPI model is that it is a translational behavior. […] PPI is the reduction in reflex response to an intense stimulus when this stimulus is immediately preceded (30-500 ms) by a weak prestimulus. The presentation of the prestimulus, although not strong enough to elicit a measurable response by itself, evokes a short lasting sensory gating process in the brain, which is manifested by the attenuated response to the successive intense stimulus. PPI is hypothesized to reflect the ability of the central nervous system to filter out distracting and irrelevant stimuli before it reaches the cortex. An increased, i.e. improved, PPI could result in better inhibitory mechanisms that filter or gate intrinsic and extrinsic stimuli prior to higher order processing. […] Furthermore, PPI and other cognitive functions are regulated by the same cortico-striato-pallido-thalamic circuitry and association between these different cognitive domains has been shown.
(§1) Male NMRI mice (Charles River, Germany, 25-35 g) were used in examples 1, 2 and 3. The animals were housed nine per cage in a colony room under constant temperature (20±1° C.) and humidity (50±5%). Animals were allowed to acclimatize for at least one week prior to behavioral testing. The daylight cycle was maintained artificially (lights on from 0600 to 1800 hours) and behavioral experiments were conducted during the light phase. The Ethics Committee for Animal Experiments, Goteborg, Sweden, approved all experimental procedures used in the present study.
Acoustic startle was recorded using a MOPS 3 startle response recording system (Metod och Produkt Svenska AB, Sweden). The animals were placed in small plexi glass cages (10×5.5×6 cm) that were suspended at the top of a piston. A movement of the animal in the cage caused a displacement of the piston, the acceleration of which was registered by a piezo-electric accelerometer. This signal was sampled and digitized by a microcomputer that also controlled the delivery of acoustic stimuli. Startle amplitude was defined as the maximum signal amplitude occurring 8-30 ms after the startle-eliciting stimulus. Four cages were used simultaneously and each cage was housed in a dimly lit and sound attenuated cabinet (52×42×38 cm). The cages were calibrated for equal sensitivity prior to testing and a mouse was always tested in the same cage at subsequent tests. The acoustic stimuli consisted of white noise, which was delivered by two high-frequency loudspeakers built into the ceiling of the cabinet.
Each test session started with an 8-min adaptation period containing only white background noise at 65 dB (A). Startle pulse was set to 105 dB (A) and prepulse intensities to 3, 9 and 12 dB (A) above background noise. Duration of acoustic stimuli was set to 20 ms for both prepulses and startle pulses and interstimulus interval (ISI) was set to 40 ms. Following the adaptation period the animals were subjected to a series of 5 startle pulse-alone trials that were omitted from the analysis since they only served to accommodate the animals to the sudden stimulus onset. The animals were then subjected to a pseudo-randomized combination of 3 prepulse-alone trials for each prepulse intensity, 45 pulse-alone trials and 15 prepulse+pulse trials for each prepulse intensity. Trials were separated by 5-15 s intervals.
All mice were first subjected to a pre-test to ensure that they expressed basal startle reactivity.

[2] = in vivo, cited from earlier work
[3] = system: Male NMRI mice; experiment: novel object recognition test (learning and memory formation); format: in vivo
Procedure: as §1
There are several learning and memory tasks that are appropriate for study in rodents. One widely used is the novel object recognition test. The test involves exposing the rodent to two identical objects for a brief period of time (the introductory session). […] Furthermore, very similar aspects of memory formation (involving encoding, con solidation and retrieval of information) can be assessed in human using the Brief Visual Memory Task-Revised (BVMT-R). […]
The object exploration time was manually scored from the videotapes. […]
Data are expressed as means and standard errors of the mean (S.E.M.). […]
A discrimination index was calculated for each animal: Tn/(Tf+Tn)*100 […]

[4] = system: Male NMRI mice; experiment: habituation of acoustic startle response (non-associative learning); format: in vivo; conditions: acute 1000 mg/kg intraperitoneally, block 6, versus saline, p<0.05, FIG. 2
Procedure: as §1
The model used to measure non-associative learning was habituation of acoustic startle response. Habituation refers to the decrease in response to repeated presentation of identical stimuli and the model used for this test is also translational in nature. Since habituation is a measure of how the brain filter outs irrelevant stimuli and focus selectively on important stimuli, it is thought to be a prerequisite for other forms of learning and cognitive functions.
Acoustic startle was recorded using a MOPS 3 startle response recording system (see example 1). […]
The first startle pulse response was omitted from statistical analysis since it was too variable to achieve significance. […] Habituation, the change in mean response amplitude over time, was calculated using the formula: […]

[5] = system: humans; conditions: cited from earlier work
[6] = system: mice; conditions: pre-attentive information filtering; cited from earlier work
[7] = system: patients with schizophrenia; conditions: adjunctive treatment, 6 g/day; cited from earlier work
[8] = system: patients with Alzheimer's disease; conditions: human, in vivo; cited from earlier work
[9] = system: healthy volunteers; conditions: human, in vivo; cited from earlier work

Structure (SMILES)	pulse-alone response (acoustic startle; sedative properties) ([1]; 500-2000 mg/kg)	increase in capacity to filter information pre-attentively (absolute change in PPI at day 1 compared to matching test) ([1]; L-lysine 500 mg/kg intraperitoneally) [%]	increase in capacity to filter information pre-attentively (absolute change in PPI at day 1 compared to matching test) ([1]; L-lysine 1000 mg/kg intraperitoneally) [%]	increase in capacity to filter information pre-attentively (absolute change in PPI at day 1 compared to matching test) ([1]; L-lysine 2000 mg/kg intraperitoneally) [%]	final PPI test at day 9 ([1]; after a 6-day washout period)	effect on PPI response ([1]; doses 500 mg/kg and 1000 mg/kg)	effect on PPI response ([1]; highest dose 2000 mg/kg)	effect of test day on PPI (day 1 versus day 3, repeated administration) ([1]; once daily for three days, 500-2000 mg/kg)	oral bioavailability ([2]; po)	blood-brain barrier penetration [2]	time exploring the two similar objects during the introductory session versus saline ([3]; 1000 mg/kg intraperitoneally 30 min before the introductory session)	exploration of the familiar object, recognition session compared with introductory session ([3]; 1000 mg/kg intraperitoneally, 90 min delay, p<0.05, FIG. 3B)	habituation of the acoustic startle response [4]	reported adverse effects in humans ([5]; L-lysine treatment in general)	adverse effects in long-term studies ([5]; administration up to 2 years)	reported adverse effects in short-term human studies ([5]; doses as high as 40 g/day, resolved as the dose was decreased)	effect on cognitive impairments induced by phencyclidine [6]	effect on symptoms in patients with schizophrenia [7]	effect on cognition in patients with Alzheimer's disease [8]	effect on cognition in healthy volunteers [9]
NCCCC[C@H](N)C(=O)O [L-lysine]	did not affect the pulse-alone response	28.7	51.3	9.0	did not demonstrate any significant effects	improved the PPI response in a dose related manner	did not affect PPI significantly	no significant effect of test day	very good oral bioavailability	easily penetrates the blood-brain barrier	no difference	significantly less exploration of the familiar object	improves the brain capacity to filter out irrelevant information	transient gastrointestinal problems in a few patients	have not revealed any adverse effects	abdominal cramps and transient diarrhea	can restore cognitive impairments	possibly can improve some symptoms	–	–
COc1cc2c(cc1OC)C(=O)C(CC1CCN(Cc3ccccc3)CC1)C2 (stereo not shown) [Donezepil]	–	–	–	–	–	–	–	–	–	–	–	–	–	–	–	–	–	–	enhance cognition	no or detrimental effects on cognition
CC12CC3CC(C)(C1)CC(N)(C3)C2 [Memantine]	–	–	–	–	–	–	–	–	–	–	–	–	–	–	–	–	–	–	enhance cognition	no or detrimental effects on cognition
